Assay results as given in PMC4867306 (European journal of medicinal chemistry, 2016).
pKi: −log10 of the molar value. “Also recorded” adds a separate entry of the source. Like-named read-outs stand apart in the source and are kept apart here.

How the values were obtained:
[1] = biological target: T1, NmAPN (M1 alanine aminopeptidase from Neisseria meningitidis) (Neisseria meningitidis, UniProt Q9JYV4)
T1 sequence (Q9JYV4 1-867): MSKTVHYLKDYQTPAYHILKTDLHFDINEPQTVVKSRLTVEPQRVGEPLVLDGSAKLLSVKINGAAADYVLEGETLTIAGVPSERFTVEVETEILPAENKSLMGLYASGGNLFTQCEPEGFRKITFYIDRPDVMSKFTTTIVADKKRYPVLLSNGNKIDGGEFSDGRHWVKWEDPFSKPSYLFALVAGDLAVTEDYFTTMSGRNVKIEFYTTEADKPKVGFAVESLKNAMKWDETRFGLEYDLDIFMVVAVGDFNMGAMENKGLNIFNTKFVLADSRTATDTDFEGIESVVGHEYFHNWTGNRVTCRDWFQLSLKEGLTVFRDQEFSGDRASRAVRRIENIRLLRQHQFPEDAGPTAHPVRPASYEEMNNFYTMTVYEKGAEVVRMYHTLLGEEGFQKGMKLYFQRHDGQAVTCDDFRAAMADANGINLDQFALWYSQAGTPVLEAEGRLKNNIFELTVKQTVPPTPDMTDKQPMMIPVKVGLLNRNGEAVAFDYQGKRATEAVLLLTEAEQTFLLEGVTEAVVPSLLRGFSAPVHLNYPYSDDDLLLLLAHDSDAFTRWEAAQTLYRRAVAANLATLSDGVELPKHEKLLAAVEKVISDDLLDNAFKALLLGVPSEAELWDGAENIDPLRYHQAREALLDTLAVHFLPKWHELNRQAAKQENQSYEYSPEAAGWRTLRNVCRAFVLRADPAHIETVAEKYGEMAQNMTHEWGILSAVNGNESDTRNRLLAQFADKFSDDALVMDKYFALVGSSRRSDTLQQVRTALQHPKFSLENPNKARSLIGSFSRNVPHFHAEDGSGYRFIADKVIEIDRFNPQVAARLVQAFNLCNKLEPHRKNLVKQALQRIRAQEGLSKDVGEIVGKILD

[2] = biological target: T1, NmAPN (M1 alanine aminopeptidase from Neisseria meningitidis); conditions: read-out: Ki NmAPN; cited from earlier work
[3] = biological target: T2, LAP (M17 leucine aminopeptidase) (Sus scrofa, UniProt P28839); conditions: originally measured activity; NI = no inhibition up to 0.8 mM inhibitor concentration; cited from earlier work
T2 sequence (P28839 33-519 limits assumed): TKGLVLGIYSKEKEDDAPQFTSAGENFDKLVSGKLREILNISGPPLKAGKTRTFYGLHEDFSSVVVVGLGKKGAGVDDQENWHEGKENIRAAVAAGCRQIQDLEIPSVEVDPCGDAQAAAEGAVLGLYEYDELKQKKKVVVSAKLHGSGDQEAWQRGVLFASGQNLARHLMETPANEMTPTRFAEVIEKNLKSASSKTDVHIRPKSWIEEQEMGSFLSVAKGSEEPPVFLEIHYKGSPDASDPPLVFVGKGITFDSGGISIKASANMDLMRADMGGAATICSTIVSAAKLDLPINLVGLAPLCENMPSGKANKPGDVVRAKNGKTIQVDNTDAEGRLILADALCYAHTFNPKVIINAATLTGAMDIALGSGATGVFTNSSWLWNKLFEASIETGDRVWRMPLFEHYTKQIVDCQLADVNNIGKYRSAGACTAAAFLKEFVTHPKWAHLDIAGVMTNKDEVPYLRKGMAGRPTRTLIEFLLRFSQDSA

[4] = biological target: T2, LAP (M17 leucine aminopeptidase); test: Inhibition of porcine kidney leucine aminopeptidase; type: biochemical

SMILES: Nc1ccc(CNCC(N)P(=O)(O)O)cc1 (centres unmarked) [1r]
- improvement of affinity compared with non-modified analogue 1n [1]: 3-to-4 fold

SMILES: NC(CCc1ccccc1)P(=O)(O)CC(Cc1ccccc1)C(=O)O (centres unmarked) [phosphinic analogue of hPhePhe]
- pKi [2]: 6.52

SMILES: CCCNCC(N)P(=O)(O)O (centres unmarked) [1c]
- Ki LAP [3]: inactive; also recorded: do not inhibit LAP at all

SMILES: CC(C)CNCC(N)P(=O)(O)O (centres unmarked) [1d]
- Ki LAP [3]: inactive; also recorded: do not inhibit LAP at all

SMILES: NC(CNC1CCCCC1)P(=O)(O)O (centres unmarked) [1h, N-cyclohexyl-1,2-diaminoethylphosphonic acid]
- Ki LAP [3]: does not influence the LAP activity at all; also recorded: inactive; also recorded: do not inhibit LAP at all

SMILES: COc1ccc(CNCC(N)P(=O)(O)O)cc1 (centres unmarked) [1s]
- improvement of affinity compared with non-modified analogue 1n [1]: 3-to-4 fold

SMILES: NC(CN1CCOCC1)P(=O)(O)O (centres unmarked) [1w]
- pKi ([4]; read-out: Ki LAP, NI = no inhibition up to 0.8 mM inhibitor concentration): < 3.10

SMILES: NC(CNCC1CCCO1)P(=O)(O)O (centres unmarked) [1k]
- pKi [4]: 5.15 to 5.60
